Patent US20180235909A1, “Use of 1-phenyl-3-dimethylaminopropane Compounds for Treating Rheumatoid Pain” (Gruenenthal GmbH, priority 2009, published 2018)

Test system: CFA-induced chronic arthritic pain
Assay: CFA-induced chronic knee joint arthritic pain in rats, weight bearing (incapacitance tester)
Details: for Analgesic efficacy (mean percentage of maximal possible effect, weight bearing): highest possible dose without readout confounding side effects, five days post intraarticular CFA, n=10; for Side effects at higher doses: doses higher than the highest analyzed dose

CC(C)Cc1ccc(C(C)C(=O)O)cc1 (centres unmarked) [Ibuprofen]
Analgesic efficacy (mean percentage of maximal possible effect, weight bearing) (147 mg/kg ip): 54.7% @ 147 mg/kg | Analgesic efficacy (mean percentage of maximal possible effect, weight bearing) (147 mg/kg ip, listed as ibuprofen): 54.7% | Side effects at higher doses (rats): readout (weight bearing) confounding side effects

COc1ccc2c3c1O[C@H]1C(=O)CC[C@@]4(O)[C@@H](C2)N(C)CC[C@]314 [Oxycodone]
Analgesic efficacy (mean percentage of maximal possible effect, weight bearing) (0.464 mg/kg i.v.): 46.1% @ 0.464 mg/kg | Analgesic efficacy (mean percentage of maximal possible effect, weight bearing) (0.464 mg/kg i.v., listed as oxycodone): 46.1% | Side effects at higher doses (rats): readout (weight bearing) confounding side effects

CC[C@@H](c1cccc(O)c1)[C@@H](C)CN(C)C [Tapentadol, (−)-(1R,2R)-3-(3-dimethylamino-1-ethyl-2-methyl-propyl)¬phenol]
Side effects at higher doses (rats): readout (weight bearing) confounding side effects | Effect on CFA-induced decrease in weight bearing (i.v. administration, rats, dose dependence): significantly reduced the CFA-induced decrease in weight bearing in a dose dependent manner

CN1CC[C@]23c4c5ccc(O)c4O[C@H]2[C@@H](O)C=C[C@H]3[C@H]1C5 [Morphine]
Analgesic efficacy (mean percentage of maximal possible effect, weight bearing) (2.15 mg/kg iv): 59.6% @ 2.15 mg/kg | Analgesic efficacy (mean percentage of maximal possible effect, weight bearing) (2.15 mg/kg iv, listed as morphine): 59.6% | Side effects at higher doses (rats): readout (weight bearing) confounding side effects
